Data as given in article PMC9201908, “Expansion of the Strigolactone Profluorescent Probes Repertory: The Right Probe for the Right Application” (Frontiers in Plant Science, 2022).
Where “and” joins values, the source holds several entries; their conditions need not be identical. Equal entries are not always repeated. Structures can show the parent of a compound that is named as a salt. Where two headings read alike, the source gives them in different places.

How the values were obtained:
[1] = test system: rms1-10 pea mutant plants; experiment: Pea shoot-branching assay by direct application on the bud, rms1-10; type: in vivo, Pisum sativum; settings: for Length of bud at node 3 /branch: direct application, rms1-10, 10 days after treatment; for Bioactivity on shoot branching inhibition (bud development): result in words
Experimental: (§1) Pea (Pisum sativum) branching mutant plants used in this study were described previously (Rameau et al., [1997]). The SL biosynthesis rms1-10 (M3T-884) and SL response rms3-4 (M2T-30) mutants were obtained from the dwarf cv. Térèse. Plants were grown in a greenhouse under long days as described by Braun et al. ([2012]).
(§2) The compounds to be tested were applied directly to the axillary bud with a micropipette as 10 μL of a solution containing 0.1% of acetone with 2% of polyethylene glycol 1,450, 50% of ethanol, and 0.4% of DMSO. The control 0 is the treatment with 0.1% of DMSO without compound. A total of 24 plants were sown per treatment in trays (2 repetitions of 12 plants). The treatment was done 8 days after sowing, on the axillary bud at node 3. The branches at nodes 1–2 were removed to encourage the outgrowth of axillary buds at nodes above. Nodes were numbered acropetally from the first scale leaf as node 1 and cotyledonary node as node 0. Bud growth at node 3 was measured 10 days after treatment. Plants with damaged main shoot apex or showing a dead white treated bud were discarded from the analysis. The SL-deficient rms1-10 pea mutant was used for all experiments and WT Térèse as control. SL-perceived rms3-4 pea mutant was used to test that when bioactive, the analog acts via RMS3, and it was also used to check the putative toxicity of probes.

[2] = test system: rms3-4 pea mutant plants; experiment: Pea shoot-branching assay by direct application on the bud, rms3-4; type: in vivo, Pisum sativum; settings: 1,000 nM, rms3-4, 10 days after treatment
Experimental: as §1, §2

[3] = target: T1, RMS3 protein (Pisum sativum, UniProt A0A109QYD3); experiment: DSF binding assay on RMS3; settings: 10 µM RMS3, probe 0-400 µM
T1 construct: GST; made in house
T1 sequence (A0A109QYD3 1-267): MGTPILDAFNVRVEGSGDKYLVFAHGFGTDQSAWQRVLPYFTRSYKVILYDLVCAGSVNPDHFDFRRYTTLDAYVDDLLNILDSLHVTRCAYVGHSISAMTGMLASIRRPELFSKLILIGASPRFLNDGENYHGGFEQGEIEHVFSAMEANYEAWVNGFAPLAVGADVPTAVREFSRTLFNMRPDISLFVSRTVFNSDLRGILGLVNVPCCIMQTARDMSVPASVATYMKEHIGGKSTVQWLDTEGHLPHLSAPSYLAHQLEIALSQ
Excerpt: To search for a destabilization effect, which characterizes bioactive SL analogs with SL receptors, we performed DSF binding assay with our novel probes on RMS3 protein.
DSF assay with SL profluorescent probes. The melting temperature

[4] = target: T1, RMS3 protein; experiment: Enzymatic assay with profluorescent probes, RMS3; type: biochemical; settings: probe 10 μM, RMS3 400 nM, 25°C, result in words
[5] = test system: rms1-10 pea mutant plants; settings: cited from earlier work; for Length of bud at node 3 /branch: direct application, rms1-10, tested previously, ref De saint Germain et al 2016
[6] = test system: pea; experiment: Bioactivity of D14 inhibitors in pea; settings: in vivo
[7] = test system: Arabidopsis SL-deficient mutant max3-11; experiment: Hydroponic assay on Arabidopsis, rosette branches; type: in vivo, Arabidopsis thaliana; settings: max3-11, hydroponic, 0.5 and 3 μM
Experimental: The hydroponic assay was adapted from the study by Cornet et al. ([2021]). Seeds were surface-sterilized for 8 min in a solution of ethanol (95%) and hypochlorite solution (10%; Bayrol, Mundolsheim, France) and were rinsed two times with ethanol (100%). Each seed was sown on top of a cut 0.5 ml Eppendorf tube filled with agar medium containing 0.65% of agar and 10% of nutritive solution of 5 mM NO3. Tubes were soaked in water and stored in the dark at 4°C for 2 days. Twelve plants per pipette tip box (13 × 9 × 7 cm) were grown and supplied with nutrient solution as in the study by Boyer et al. ([2014]) at a concentration of 5 ml/L (750 ml of solution per box). Every week, the nutrient solution was renewed and every 10 days one time, a fresh batch of treatment was added to the solution. The first treatment occurred at day 27 after sowing when plants started to bolt. The number of rosette branches was counted at day 42.

[8] = test system: Ppccd8 mutant plants; experiment: Physcomitrium patens bioassay, number of filaments in the dark; type: in vivo; settings: 1 μM; for Activity on filament number, one bioassay replication: Supplementary Figure 3
Experimental: Assays on Physcomitrium patens were performed on plants grown in 24-well plates, starting from very small pieces of moss tissues as described by Guillory and Bonhomme ([2021]). As for pea rms1, the Ppccd8 SL synthesis mutant was used for assays, since the effect of the compounds was better seen in this mutant vs. wild type (WT; Lopez-Obando et al., [2021]). For each treatment, 24 plants were grown in PpNO3 medium [minimal medium described by Ashton et al., [1979]], dispatched in three different plates. Plants were grown for 2 weeks under control conditions, then treated with fluorophores or probes (all compounds used at 1 μM), before being placed vertically in the dark for 10 days. A single picture of each well was taken under an Axio Zoom microscope (Zeiss) with a dedicated program. Filaments were counted using ImageJ software (http://imagej.nih.gov/ij/) as described by Guillory and Bonhomme ([2021]). Twenty-four plants were tested in each treatment.

[9] = test system: Ppccd8 mutant plants; settings: WT and Ppccd8; ref Hoffmann et al., 2014; Lopez-Obando et al., 2021; cited from earlier work
[10] = test system: ShD14; set-up: method as in Xu et al., 2018; settings: ref Xu et al., 2018; cited from earlier work

Compound	Length of bud at node 3 /branch ([1]; 10 nM, mean per replicate)	Length of bud at node 3 /branch ([1]; 100 nM, mean per replicate)	Length of bud at node 3 /branch ([1]; 1,000 nM, mean per replicate)	Length of bud at node 3 /branch ([1]; 10,000 nM, mean per replicate) [mm]	Bioactivity on shoot branching inhibition (bud development) ([1]; rms1-10, direct application)	further results
COc1cc2ccc(=O)oc2cc1OC1C=C(C)C(=O)O1 (racemic) [(±)-GC379]	3.54 mm	2.81 mm and 5.02 mm and 3.98 mm and 14.32 mm	3.38 mm and 3.19 mm and 3.65 mm and 3.04 mm	2.17	bioactive for the three tested concentrations	Length of bud at node 3 /branch [2]: 26.30; Destabilization of RMS3 (DSF) [3]: able to destabilize RMS3
CC1=C(C)C(Oc2ccc3ccc(=O)oc3c2)OC1=O (racemic) [(±)-GC155]	5.97 mm and 16.85 mm and 8.43 mm	3.68 mm and 4.11 mm and 2.71 mm and 5.98 mm and 1.83 mm	1.98 mm and 1.45 mm and 1.92 mm and 1.96 mm and 2.38 mm and 2.32 mm	2.06	among the most bioactive molecules	Cleavage kinetics by RMS3 [4]: two-phase kinetic; Destabilization of RMS3 (DSF) [3]: able to destabilize RMS3
7-Hydroxycoumarin [reference compound]	–	–	41.46 mm	–	–	–
CCOC(=O)c1ccccc1-c1c2ccc(=O)cc-2oc2cc(OC3C=CC(=O)O3)ccc12 (racemic) [(±)-dYLG, reference compound]	–	–	–	–	–	Biological activity on branching inhibition ([5]; ref Yao et al., 2021): no biological activity
COc1cc2ccc(=O)oc2cc1OC1OC(=O)C(C)=C1C (racemic) [(±)-GC380]	6.65 mm	8.99 mm and 11.66 mm and 5.90 mm	2.33 mm and 3.47 mm and 2.08 mm	2.15	bioactive for the three tested concentrations	Length of bud at node 3 /branch [2]: 23.62
Cc1c(Cl)cccc1Nc1ccccc1C(=O)O [TFA, tolfenamic acid]	–	–	–	–	–	Bioactivity in pea [6]: no bioactivity
CC1=CC(Oc2ccc3ccc(=O)oc3c2)OC1=O (racemic) [(±)-GC116]	2.47 mm and 2.26 mm and 5.20 mm and 4.34 mm and 3.85 mm	2.66 mm and 2.29 mm and 2.46 mm and 1.96 mm and 1.72 mm	1.67 mm and 3.13 mm and 1.60 mm and 2.22 mm and 1.97 mm and 2.21 mm	2.43	inhibition of bud development	Length of bud at node 3 /branch ([1]; 0.1 nM): 11.47 mm; Length of bud at node 3 /branch ([1]; 1 nM): 6.38 mm; Inhibition of bud development among probes with one methyl group on the D-ring ([1]; rms1-10, direct application, 10 nM): strongest inhibition of bud development; Bioactivity on number of rosette branches [7]: bioactive at 3 μM; Activity on filament number, one bioassay replication [8]: no significant bioactivity; Destabilization of RMS3 (DSF) [3]: able to destabilize RMS3
CC1=CC(OC=C2C(=O)OC3c4ccccc4CC23)OC1=O (single isomer, unassigned; (+)) [(+)-GR24]	–	–	–	–	–	Effect on filament number [9]: decrease in filament number
Cc1cc(=O)oc2c(F)c(OC3C=CC(=O)O3)c(F)cc12 (racemic) [(±)-GC486]	24.70 mm	22.10 mm	23.14 mm	–	no biological activity	Activity on filament number, one bioassay replication [8]: slight opposite effect; Cleavage kinetics by RMS3 [4]: Michaelian kinetics; Length of bud at node 3 /branch ([5]; 1,000 nM): 9.26 mm; Length of bud at node 3 /branch ([5]; 5,000 nM): 17.41 mm
CC1=C[C@H](O/C=C2/C(=O)O[C@@H]3c4ccccc4C[C@H]23)OC1=O (racemic) [(±)-GR24, reference compound]	–	–	–	–	–	Bioactivity on number of rosette branches [7]: bioactive at both concentrations; Activity on filament number [8]: confirmed the previous activity; Effect on filament number [9]: decrease in filament number; Cleavage by ShD14 [10]: could cleave
O=c1ccc2nc3ccc(O)cc3oc-2c1 [Resorufin, reference compound]	12.53 mm	16.50 mm	14.90 mm	–	–	–
Cc1cc(=O)oc2c(F)c(O)c(F)cc12 [DiFMU, 6,8-difluoro-7-hydroxy-4-methyl-2H-chromen-2-one, reference compound]	–	–	14.76 mm	–	–	–
CC(=O)Oc1ccc2ccc(=O)oc2c1 [CoumarinAc, 7-Acetoxycoumarin]	21.81 mm	22.67 mm	25.33 mm	–	no effect	Cleavage kinetics by RMS3 [4]: slower velocity than DiFMUAc
O=C(N1CCc2ccccc21)n1ccnn1 [KK094]	–	–	–	–	–	Bioactivity in pea [6]: no bioactivity
CC1=C(C)C(Oc2ccc3nc4ccc(=O)cc-4oc3c2)OC1=O (racemic) [(±)-GC247, 7-[(3,4-Dimethyl-5-Oxo-2,5-Dihydrofuran-2-yl)Oxy]-3H-Phenoxazin-3-One]	12.39 mm	–	–	6.54	inhibitory effect with statistical significance only at 10 μM	Cleavage kinetics by RMS3 [4]: two-phase kinetic
